This passage reports Ki results from BindingDB's records for doi:10.1021/jm00346a010 (1982).

The target of experiment [1] is Adenylate kinase (Escherichia coli) (UniProt P69441). Kind of experiment: Ability to inhibit Escherichia coli adenylate kinase III, activity expressed as Inhibition constant; Non competitive inhibition.
Experiment [2] has the same target. The experiment is described as follows: Ability to inhibit Escherichia coli adenylate kinase II, activity expressed as Inhibition constant.

By Ki is commonly meant the equilibrium dissociation constant of an inhibitor or competing ligand from its target. Lower therefore signals a stronger hold on the target.

`O=C(CI)NCCCCCNc1ncnc2c1ncn2[C@@H]1O[C@H](COP(=O)(O)OP(=O)(O)OP(=O)(O)O)[C@@H](O)[C@H]1O` displayed a Ki in experiment [1] of 4.8 mM. For the molecule `CN(CCCN(C)C(=O)CCCCNc1ncnc2c1ncn2[C@@H]1O[C@H](COP(=O)(O)OP(=O)(O)OP(=O)(O)O)[C@@H](O)[C@H]1O)C(=O)CCCCNC(=O)OCc1ccccc1`, the inhibition constant (Ki) in experiment [2] was found to be 6.8 mM. Still for that read-out and setting: the result for `CC(=O)NCCCCCCNc1nc2c(N)ncnc2n1C1O[C@H](COP(=O)(O)OP(=O)(O)OP(=O)(O)O)[C@@H](O)[C@H]1O` (stereo not given in full) reads 6.7 mM.

As for `NCCCCCCNc1nc2c(N)ncnc2n1C1O[C@H](COP(=O)(O)OP(=O)(O)OP(=O)(O)O)[C@@H](O)[C@H]1O` (stereo not given in full), the Ki in experiment [2] is 7.3 mM. `O=C(NCCCCCNc1ncnc2c1ncn2C1O[C@H](COP(=O)(O)OP(=O)(O)OP(=O)(O)O)[C@@H](O)[C@H]1O)OCc1ccccc1` (stereo not given in full) yielded a Ki in experiment [2] of 4.7 mM.
